# In US20120115742A1, “METHODS FOR IDENTIFICATION” (Cambridge Enterprise Limited, priority 2009, published 2012):
# Where two headings read alike, the source gives them in different places.
# Assays:
# fetal rat pituicytes = assay: Rat pituicyte GH suppression assay; format: cell-based; settings: Table 3
# Excerpt: (§1) Two different assays for “classical” sstr2 functions were adopted: (1) cultured foetal rat pituitary cells secreted growth hormone which is inhibited by sstr2 agonists in a dose-dependent fashion and (2) selected glucose-sensitive sub-clones of the human Panc-1 cell line secrete insulin which is inhibited by sstr2 agonists in a dose-dependent fashion.
# Methods: Cultures of fetal rat pituicytes were established exactly as previously described (Murray et al. (2004) J. Clin. Endocrinol. Metab. 89:3027-32) by enzymatic dispersion. After 48 hrs in low glucose DMEM plus 10% FCS, cells in 48 well plates (5×10^4 cells per well) were washed for 4 hrs in serum-free DMEM and then incubated with test agents at various concentrations for a further 24 hrs in serum-free DMEM. At the end of this period, the conditioned medium was harvested, any cell debris removed by centrifugation and assayed for […] using a commercially available ELISA (Linco; cat# EZRMGH-45K) in accordance with the manufacturer's instructions.
# (§2) Results were reported as the mean SD, expressed as the fold change from cells in the presence of vehicle only.
# sstr2 = molecular target: T1, sstr2 (Homo sapiens, UniProt P30874); assay: [3H]-BN83250 equilibrium binding to THP-1 cells (Scatchard/competition); settings: THP-1 cells, 2 hours at 4° C.; read-out: affinity (Scatchard analysis)
# T1 construct: with 1×10^6 THP-1 cells in Gey's Balanced Salt Solution, 10 nM [^3H]-BN83250; endogenous in cells; host or cells: THP-1 cells (intact cells, 4 °C)
# T1 sequence (P30874 whole entry): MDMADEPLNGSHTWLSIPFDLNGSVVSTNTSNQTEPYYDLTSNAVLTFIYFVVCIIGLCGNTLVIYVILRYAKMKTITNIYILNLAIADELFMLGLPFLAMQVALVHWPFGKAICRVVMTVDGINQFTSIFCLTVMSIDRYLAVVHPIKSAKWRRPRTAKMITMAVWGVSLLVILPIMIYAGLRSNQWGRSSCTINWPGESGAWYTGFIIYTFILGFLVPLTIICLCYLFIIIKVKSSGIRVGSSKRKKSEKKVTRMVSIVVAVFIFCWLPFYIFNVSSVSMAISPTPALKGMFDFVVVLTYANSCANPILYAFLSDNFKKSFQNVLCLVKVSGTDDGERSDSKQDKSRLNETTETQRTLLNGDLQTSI
# Method: Methods: [^3H]-BN83250 was synthesesized from (S,E)-3-(2′,2′-dimethyldodec-4′-enoylamino)-caprolactam by catalytic hydrogenation using tritium gas over a palladium catalyst (CRB Ltd, Cleveland, UK), yielding the tritiated product at a concentration of 270 μM in ethanol with a specific activity of 220Ci/mmol. The (S,E)-3-(2′,2′-dimethyldodec-4′-enoylamino)-caprolactam was prepared as follows: (S,S)-3-amino-caprolactam hydro-pyrrolidine-5-carboxylate (10 mmol) and Na2CO3 (30 mmol) in water (30 ml) were added to a solution of 2,2-dimethyl-dodec-4-enoyl chloride (10 mmol) in dichloromethane (30 ml) at ambient temperature and the reaction was stirred for 12 hours. The organic layer was then separated and the aqueous phase was extracted with additional dichloromethane (2×25 ml). The combined organic layers were dried over Na2CO3 and reduced in vacuo. The residue was purified by silica column chromatography (1:1 EtOAc:hexanes to EtOAc) to give (S,E)-3-(2′,2′-dimethyl-dodec-4′-enoyl)amino-caprolactam as a colourless oil (2.12 g, 63%). The radiolabelled compound was stored in the dark at 4° C. until required. Prior to use the specific activity was adjusted by addition of unlabelled BN83250.
# For the analysis of binding, individual reactions were set up (in triplicate for each condition), with 1×10^6 THP-1 cells in Gey's Balanced Salt Solution, 10 nM [^3H]-BN83250 (at 50 Ci/mmol) and various concentrations of (S)-3(2′2′-dimethylpropionoylamino)-tetrahydropyridin-2-one (10 pM to 10 μM). Excess (100 μM) unlabelled BN83250 was used to determine the level of non-specific binding. After 2 hours at 4° C. (conditions previously shown to achieve equilibrium binding, and which prevent uptake of the radioligand that would result in an over-estimate of binding) excess label was washed away by centrifugation (3 washes with 5 ml of Gey's Balanced Salt Solution) and the bound radioactivity was determined by scintillation counting of the solubilised cell pellet.
# Hits from this assay were confirmed using conventional Scatchard analysis, exactly as described in Example 4 above.
# Panc-2H4 cells = assay: Human Panc-2H4 insulin suppression assay; format: cell-based
# Excerpt: as §1
# Glucose-sensitive sub-clones of the human Panc-1, a cell line derived from a pleiomorphic epithelioid carcinoma of the exocrine pancreas, were obtained essentially as described by Hamil et al. (2008) Biomed. Sci. Instrum. 44:441-6. Briefly, Panc-1 cells were subcultured in 24 well plates, and the medium was supplemented with an additional 5% glucose. […] The resulting sub-lines were then tested for glucose sensitivity by preparing wells of a 96-well plate (5×10^4 cells per well) which were then exposed to cultured medium containing a range of glucose concentrations (low glucose DMEM, DMEM, DMEM+1% glucose, DMEM+2.5% glucose and DMEM+5% glucose). After 24 hrs incubation, the conditioned medium was collected and assayed for insulin secretion by ELISA (Linco; cat# EZHI-14K) in accordance with the manufacturer's instructions. […] Further 96 well plates were prepared using Panc-2H4 (5×10^4 cells per well) in DMEM. After 24 hrs, the medium was switched to DMEM+5% glucose containing various test agents at various concentrations (triplicate wells per condition). After a further 24 hrs, the conditioned medium was harvested and the concentration of insulin was determined by ELISA as described above.
# as §2
substance,measurement,setting,value
"(S)-3-(2′,2′-dimethyldodecanoyl)amino-caprolactam [BN83250]",EC50,fetal rat pituicytes; read-out: Rat pituicyte GH suppression assay ED50,320 nM
same,Rat pituicyte GH suppression assay Max effect,fetal rat pituicytes; suppression compared to vehicle,63%
same,Kd,sstr2,~80 nM
same,EC50,"Panc-2H4 cells; Table 3, read-out: Human Panc-2H4 insulin suppression assay ED50",1000 nM
same,Human Panc-2H4 insulin suppression assay Max effect,"Panc-2H4 cells; Table 3, suppression compared to vehicle",28%
same,Panc-2H4 insulin suppression assay Max Effect,Panc-2H4 cells; Table 5,28%
same,EC50,"Panc-2H4 cells; Table 5, read-out: Panc-2H4 insulin suppression assay (“classical” target) ED50",1000 nM
same,inhibition of insulin secretion by Panc-2H4,Panc-2H4 cells; highest concentrations tested,None of these agents inhibited insulin secretion
